# Results published in patent US9358228B2, “Therapeutic combinations of netupitant and palonosetron” (Helsinn Healthcare SA, priority 2011, dated 2016).
# Assays:
# Assay type in all cases: in vivo, rat
# [1] = test system: spinal dorsal horn neurones in SNL rats; test: Electrophysiology: mechanical, heat and brush evoked dorsal horn neural responses; conditions: mean ± S.E.
# Experimental: Electrophysiology experiments were conducted on post-operative days 14-17 in anaesthetised rats.
# We recorded the evoked responses of dorsal horn lamina V-VI neurones to stimulation of the peripheral receptive field with: • a train of 16 electrical pulses at 3×C-fibre threshold • mechanical von Frey filaments of increasing force—vf 2 g, 8 g, 26 g and 60 g applied to the centre of the receptive field for 10 seconds • heat—40, 45 and 48° C. applied to the centre of the receptive field by a constant water jet for 10 seconds
# Following 3 stable baseline responses, 0.03 mg/kg Palonosetron and 0.10 mg/kg Netupitant were administered into the scruff of the neck by subcutaneous injection. Drug effects were followed for two hours with tests carried out at 10, 30, 50, 70, 90 and 110 minutes post injection.
# SNL rats = test: Behavioural assessment of the neuropathic state: paw withdrawal to von Frey filaments and acetone; conditions: for Paw Withdrawal Frequency (PWD), 2 g vF Filament / Paw Withdrawal Frequency (PWD), 6 g vF Filament / Paw Withdrawal Frequency (PWD), Cooling Acetone: mean ± S.E.
# Excerpt: A model of experimental neuropathic pain with symptoms of allodynia and hyperalgesia was established by tightly ligating the L5 and L6 spinal nerves as previously described (Kim and Chung, 1992). Within a sterile theatre, rats weighing approximately 130-150 g were anaesthetised (1:1 O2:N2O, 3% halothane for induction, 1% maintenance) and following a small left-side incision at approximately L4-S2, paraspinal muscle and fat was removed from spinous processes. Part of the L6 traverse process was clipped with rangeurs to expose the parallel-lying L4 and L5 spinal nerves. The L5 nerve was isolated and hooked with a finely-pulled glass rod and tightly tied with non-absorbable 6-0 silk thread distal to the dorsal root ganglion (and proximal to the formation of the sciatic nerve). The L6 nerve was then hooked from under the sacrum and tied in a similar way. Haemostasis was confirmed and the wound was sutured with 3-0 absorbable silk. The surrounding skin was pulled together and secured over the injury with wound clips. Rats recovered in an incubator, and once it had been confirmed that they had no observable motor impairment in their left hindpaw, were re-housed in cages as above. Sham surgery was performed in the same environment and under the same conditions except nerves were not hooked or ligated.
# On post-operative days 2, 7, 9 and 14, behavioural signs of punctate mechanical and cooling hypersensitivity were assessed in the left ipsilateral hindpaw relative to the right contralateral hindpaw in awake and alert rats. Rats were individually placed in clear acrylic cubes on an elevated floor of wire mesh, and following a period of acclimation (30 minutes), mechanical sensitivities were determined by paw withdrawal to von Frey (vF) filaments with bending forces 2 g and 6 g (tested in consecutive, ascending force). Each filament was applied to the plantar surface of the paw for ˜2-3 s with enough force to cause buckling, and for each animal this was repeated 10 times at set positions on each paw. […] Cold hypersensitivity was assessed by applying a drop of acetone to each paw 5 times during each testing period, with each application separated by an interval of at least 5 minutes. Withdrawal frequency was quantified as =(number of foot withdrawals/10 or 5 trials as appropriate).
# [2] = test system: acetic acid (AA)-induced somatic hypersensitivity in a rodent model; test: Somatic sensitivity assessment: von Frey hind paw withdrawal after intracolonic acetic acid; conditions: rats; for inhibition of AA-induced somatic hypersensitivity, agent alone: oral, effective dose not given (0.001-1 mg/kg dosed); for effect of 0.001 mg/kg dose alone on somatic hypersensitivity: 0.001 mg/kg oral, agent alone
# Experimental: Induction of Acute Visceral and Somatic Hypersensitivity: Visceral and somatic hypersensitivity were induced by infusing dilute (1.5 ml at 0.6%) acetic acid (AA) into the rat colon via a catheter (Intramedic PE 90 tubing) inserted via the anus to the level of the mid-colon. Within 60 mins colonic and somatic hypersensitivity was evident. Somatic Sensitivity Assessment: Von Frey filaments were used to determine the level of somatic sensitivity in all animals receiving intracolonic infusion of AA. The Von Frey instrument measures the level of somatic sensitivity by recording the minimal force required to elicit hind paw withdrawal. The animals were placed in a mesh-bottomed Von Frey caging apparatus and a nylon filament was steadily pushed against the rat's foot pad until withdrawal of the hind paw. The force in grams which elicited hind paw withdrawal was then recorded. Test Compounds: Following surgery, rats were pre-dosed with Palonosetron (1-hr pre-dose), Netupitant (2-hr pre-dose) or methyl cellulose vehicle. Palonosetron and Netupitant were supplied by […] Healthcare Inc. and were stored at 4° C. until prepared for dosing as a suspension in 1% methyl cellulose solution. The drug suspensions were prepared so that each rat received an oral dosing volume of 0.5 ml per 100 g body weight for doses of 0.001, 0.01, 0.1 or 1 mg/kg. Compounds were prepared fresh on the day of use. Statistical Analysis: To determine statistical significance between multiple control and treatment groups, data was compared using one-way ANOVA followed by a Bonferroni post-test. Results were deemed significant when p-values were less than 0.05.
compound,measurement,setting,value
"Cc1ccccc1-c1cc(N2CCN(C)CC2)ncc1N(C)C(=O)C(C)(C)c1cc(C(F)(F)F)cc(C(F)(F)F)c1 [Netu, 2-[3,5-bis(trifluoromethyl)phenyl]-N,2-dimethyl-N-[4-(2-methylphenyl)-6-(4-methylpiperazin-1-yl)pyridin-3-yl]propanamide]","Brush-Evoked, Number of Action Potentials",[1]; Netu 0.1 mg/kg s.c.,310 ± 40
same,"Heat-Evoked 40° Celsius, Number of Action Potentials",[1]; Netu 0.1 mg/kg s.c.,298 ± 72
same,"Heat-Evoked 45° Celsius, Number of Action Potentials",[1]; Netu 0.1 mg/kg s.c.,381 ± 82
same,"Heat-Evoked 48° Celsius, Number of Action Potentials",[1]; Netu 0.1 mg/kg s.c.,495 ± 186
same,"Mechanically-Evoked 8 g vF Filament, Number of Action Potentials",[1]; Netu 0.1 mg/kg s.c.,190 ± 42
same,"Mechanically-Evoked 26 g vF Filament, Number of Action Potentials",[1]; Netu 0.1 mg/kg s.c.,390 ± 56
same,"Mechanically-Evoked 60 g vF Filament, Number of Action Potentials",[1]; Netu 0.1 mg/kg s.c.,486 ± 75
same,"effect on behavioral hypersensitivities (withdrawal responses to vF2 g, vF6 g, acetone)","SNL rats; FIG. 7, SNL rats, 1 mg/kg",appears to inhibit behavioral hypersensitivities
same,"Paw Withdrawal Frequency (PWD), 2 g vF Filament","SNL rats; SNL rats, Netu 0.1 mg/kg s.c.",4.1 ± 1.0
same,"Paw Withdrawal Frequency (PWD), 6 g vF Filament","SNL rats; SNL rats, Netu 0.1 mg/kg s.c.",6.7 ± 1.8
same,"Paw Withdrawal Frequency (PWD), Cooling Acetone","SNL rats; SNL rats, Netu 0.1 mg/kg s.c.",1.9 ± 0.3
same,"Paw Withdrawal Frequency (PWD), 2 g vF Filament","SNL rats; SNL rats, Netu 1 mg/kg s.c.",3.8 ± 1.2
same,"Paw Withdrawal Frequency (PWD), 6 g vF Filament","SNL rats; SNL rats, Netu 1 mg/kg s.c.",6.2 ± 1.5
same,"Paw Withdrawal Frequency (PWD), Cooling Acetone","SNL rats; SNL rats, Netu 1 mg/kg s.c.",2.7 ± 0.5
same,"Paw Withdrawal Frequency (PWD), 2 g vF Filament","SNL rats; SNL rats, Netu 10 mg/kg s.c.",3.9 ± 1.1
same,"Paw Withdrawal Frequency (PWD), 6 g vF Filament","SNL rats; SNL rats, Netu 10 mg/kg s.c.",5.9 ± 1.0
same,"Paw Withdrawal Frequency (PWD), Cooling Acetone","SNL rats; SNL rats, Netu 10 mg/kg s.c.",2.0 ± 0.4
same,"effect in animal models of allodynia/neuropathic pain, agent alone",SNL rats; agent alone,zero or minimal effect
same,"inhibition of AA-induced somatic hypersensitivity, agent alone",[2],significantly inhibited
same,effect of 0.001 mg/kg dose alone on somatic hypersensitivity,[2],non-effective
"Cl.O=C1c2cccc3c2[C@H](CCC3)CN1[C@@H]1CN2CCC1CC2 [Palo, (3aS)-2-[(S)-1-Azabicyclo[2.2.2]oct-3-yl]-2,3,3a,4,5,6-hexahydro-1-oxo-1Hberiz[de]isoquinoline]","Brush-Evoked, Number of Action Potentials",[1]; Palo 0.03 mg/kg s.c.,144 ± 59
same,"Heat-Evoked 40° Celsius, Number of Action Potentials",[1]; Palo 0.03 mg/kg s.c.,136 ± 58
same,"Heat-Evoked 45° Celsius, Number of Action Potentials",[1]; Palo 0.03 mg/kg s.c.,380 ± 187
same,"Heat-Evoked 48° Celsius, Number of Action Potentials",[1]; Palo 0.03 mg/kg s.c.,816 ± 101
same,"Mechanically-Evoked 8 g vF Filament, Number of Action Potentials",[1]; Palo 0.03 mg/kg s.c.,211 ± 42
same,"Mechanically-Evoked 26 g vF Filament, Number of Action Potentials",[1]; Palo 0.03 mg/kg s.c.,539 ± 17
same,"Mechanically-Evoked 60 g vF Filament, Number of Action Potentials",[1]; Palo 0.03 mg/kg s.c.,799 ± 192
same,"effect on the number of paw withdrawals to vF 2 g, vF 6 g and acetone","SNL rats; FIG. 2, seen in the SNL rats only",dose related reduction
same,"Paw Withdrawal Frequency (PWD), 2 g vF Filament","SNL rats; SNL rats, Palo 0.03 mg/kg s.c.",2.8 ± 0.8
same,"Paw Withdrawal Frequency (PWD), 6 g vF Filament","SNL rats; SNL rats, Palo 0.03 mg/kg s.c.",5.2 ± 1.5
same,"Paw Withdrawal Frequency (PWD), Cooling Acetone","SNL rats; SNL rats, Palo 0.03 mg/kg s.c.",1.2 ± 0.4
same,"Paw Withdrawal Frequency (PWD), 2 g vF Filament","SNL rats; SNL rats, Palo 0.3 mg/kg s.c.",3.1 ± 0.7
same,"Paw Withdrawal Frequency (PWD), 6 g vF Filament","SNL rats; SNL rats, Palo 0.3 mg/kg s.c.",4.1 ± 1.3
same,"Paw Withdrawal Frequency (PWD), Cooling Acetone","SNL rats; SNL rats, Palo 0.3 mg/kg s.c.",1.2 ± 0.5
same,"Paw Withdrawal Frequency (PWD), 2 g vF Filament","SNL rats; SNL rats, Palo 3 mg/kg s.c.",1.4 ± 0.6
same,"Paw Withdrawal Frequency (PWD), 6 g vF Filament","SNL rats; SNL rats, Palo 3 mg/kg s.c.",1.1 ± 0.4
same,"Paw Withdrawal Frequency (PWD), Cooling Acetone","SNL rats; SNL rats, Palo 3 mg/kg s.c.",1.9 ± 0.3
same,"inhibition of AA-induced somatic hypersensitivity, agent alone",[2],significantly inhibited
same,effect of 0.001 mg/kg dose alone on somatic hypersensitivity,[2],non-effective
